Experimental data taken from patent publication US12325696B2, “Indazole derivative, preparation method therefor, and pharmaceutical application thereof” (JIANGSU HENGRUI MEDICINE CO., LTD., priority 2019, dated 2025).

How the values were obtained:
MCF7 ERαY537S = assay: Inhibition of proliferation of MCF7 cell expressing ERα Y537S mutant; format: cell-based; settings: Homo sapiens, 144 hours; for Emax: read-out: Maximum inhibition
Summary of the method: (§1)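 MCF7 cells stably expressing lentiviral ERα Y537S or D538G mutants, seeded 3,000 cells/well, then exposed in 2% FBS MEM to nine 4-fold dilutions from 100 nM for 144 h at 37° C. Viability read by CellTiter-Glo luminescence; IC50 fitted from concentration-response.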

[1] = biological target: estrogen receptor ERα Y537S mutant-type (Homo sapiens (Human), UniProt P03372, Y537S); assay: Covalent modification of ERα Y537S mutant-type LBD by high-resolution mass spectrometry; format: binding; settings: after 24 hours; 2 μM protein, 10 μM compound, 4° C.
Sequence of estrogen receptor ERα Y537S mutant-type (P03372 296-554 Y537S): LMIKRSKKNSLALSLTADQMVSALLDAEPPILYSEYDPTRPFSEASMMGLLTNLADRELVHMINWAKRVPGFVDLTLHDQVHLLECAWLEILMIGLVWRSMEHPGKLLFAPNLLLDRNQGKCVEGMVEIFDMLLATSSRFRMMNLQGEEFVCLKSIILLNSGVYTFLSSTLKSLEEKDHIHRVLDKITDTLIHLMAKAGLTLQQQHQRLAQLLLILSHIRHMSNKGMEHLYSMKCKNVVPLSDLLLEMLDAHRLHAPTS
Description: (§2) The ligand binding domain (LBD, aa296-554) of estrogen receptor ERα wild-type and ERα Y537S mutant-type was expressed in E. coli and purified. 2 μM ERα wild-type or ERα Y537S mutant-type protein and 10 μM compound were added to a buffer solution containing 50 mM Tris-HCl, pH7.5, 150 mM NaCl, 1 mM TCEP and 5% glycerol and mixed well. The solution was incubated at 4° C. for 24 hours, followed by high-resolution mass spectrometry (Agilent Technologies, Agilent Q-tof 6530) assay. Alternatively, 1 μM ERα wild-type or ERα Y537S mutant-type protein and 3 μM compound were added to a buffer solution containing 50 mM Tris-HCl, pH7.5, 150 mM NaCl, 1 mM TCEP and 5% glycerol and mixed well. The solution was incubated at 37° C. for 15 minutes, followed by high-resolution mass spectrometry assay. In the mass spectrometry assay results, the peak whose molecular weight is the sum of the molecular weight of the protein and compound is the product of covalent modification. The percentage of covalent modification is obtained by calculating the ratio of […] to total protein.

MCF7 D538G = assay: Inhibition of proliferation of MCF7 cell expressing ERα D538G mutant; format: cell-based; settings: Homo sapiens, 144 hours; for Emax: read-out: Maximum inhibition
Summary of the method: as §1

[2] = biological target: estrogen receptor ERα wild-type (Homo sapiens (Human), UniProt P03372); assay: Covalent modification of ERα wild-type LBD by high-resolution mass spectrometry; format: binding; settings: after 24 hours; 2 μM protein, 10 μM compound, 4° C.
Sequence of estrogen receptor ERα wild-type (P03372 296-554): as the sequence (P03372 296-554 Y537S) above, with S242Y counted along it
Description: as §2

MCF7 cell = assay: Inhibition of proliferation of MCF7 cell (CellTiter-Glo, 144 hours); format: cell-based; settings: Homo sapiens; for IC50: MCF7, CellTiter-Glo, read-out: IC50 of the inhibitory effect on the proliferation of MCF7 cell; for Emax: MCF7 cell proliferation, read-out: Maximum inhibition
Summary of the method: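 Seeded overnight, MCF7 cells were treated in MEM with 2% FBS with nine 4-fold dilutions from 100 nM (0.5% DMSO blank). Incubation 144 h at 37° C, 5% CO2. CellTiter-Glo luminescence read; IC50 from signal versus log concentration.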

Row | SMILES | IC50 (MCF7 ERαY537S) [pM] | Emax (MCF7 ERαY537S) [%] | Covalent modification effect on the estrogen receptor ERα Y537S mutant-type [1] [%] | IC50 (MCF7 D538G) [pM] | Emax (MCF7 D538G) [%] | Covalent modification effect on the estrogen receptor ERα wild-type [2] [%] | IC50 (MCF7 cell) [pM] | Emax (MCF7 cell) [%]
1 | CN(C)C(=O)/C=C/CNC1(COc2ccc(/C(=C(/CC(F)(F)F)c3ccccc3)c3ccc4[nH]nc(F)c4c3)cn2)CC1 [Example 39, (E)-N,N-Dimethyl-4-((1-(((5-((Z)-4,4,4-trifluoro-1-(3-fluoro-1H-indazol-5-yl)-2-phenylbut-1-en-1-yl)pyridin-2-yl)oxy)methyl)cyclopropyl)amino)but-2-enamide] | 1000 | 112 | 98 | 600 | 105 | 97 | 200 | 113
2 | O=C(/C=C/CNC1(COc2ccc(/C(=C(/CC(F)(F)F)c3ccccc3)c3ccc4[nH]nc(F)c4c3)cn2)CC1)N1CCOCC1 [Example 1, (E)-1-Morpholino-4-((1-(((5-((Z)-4,4,4-trifluoro-1-(3-fluoro-1H-indazol-5-yl)-2-phenylbut-1-en-1-yl)pyridin-2-yl)oxy)methyl)cyclopropyl)amino)but-2-en-1-one] | 3000 | 100 | 97 | 2000 | 100 | 97 | 500 | 100
3 | CN(C)C(=O)/C=C/CN1CCC[C@@H](Oc2ccc(/C(=C(/CC(F)(F)F)c3ccccc3)c3ccc4[nH]nc(F)c4c3)cn2)C1 [Example 14, (E)-N,N-Dimethyl-4-((R)-3-((5-((Z)-4,4,4-trifluoro-1-(3-fluoro-1H-indazol-5-yl)-2-phenylbut-1-en-1-yl)pyridin-2-yl)oxy)piperidin-1-yl)but-2-enamide] | 6000 | 97 | 94 | 3000 | 107 | 93 | 800 | 108
4 | O=C(/C=C/CNC1(COc2ccc(/C(=C(/CC(F)(F)F)c3ccccc3)c3ccc4[nH]nc(F)c4c3)cn2)CC1)N1CC[C@H](O)C1 [Example 41, (E)-1-((S)-3-Hydroxypyrrolidin-1-yl)-4-((1-(((5-((Z)-4,4,4-trifluoro-1-(3-fluoro-1H-indazol-5-yl)-2-phenylbut-1-en-1-yl)pyridin-2-yl)oxy)methyl)cyclopropyl)amino)but-2-en-1-one] | 600 | 111 | 95 | 200 | 106 | 93 | 100 | 115
5 | O=C(/C=C/CN1CCC[C@@H](Oc2ccc(/C(=C(/CC(F)(F)F)c3ccccc3)c3ccc4[nH]nc(F)c4c3)cn2)C1)N1CCCC1 [Example 15, (E)-1-(Pyrrolidin-1-yl)-4-((R)-3-((5-((Z)-4,4,4-trifluoro-1-(3-fluoro-1H-indazol-5-yl)-2-phenylbut-1-en-1-yl)pyridin-2-yl)oxy)piperidin-1-yl)but-2-en-1-one] | 2000 | 102 | 96 | 1000 | 105 | 95 | 200 | 107
6 | O=C(/C=C/CNC1(COc2ccc(/C(=C(/CC(F)(F)F)c3ccccc3)c3ccc4[nH]nc(F)c4c3)cn2)CC1)N1CCO[C@@H](CO)C1 [Example 42, (E)-1-((R)-2-(Hydroxymethyl)morpholino)-4-((1-(((5-((Z)-4,4,4-trifluoro-1-(3-fluoro-1H-indazol-5-yl)-2-phenylbut-1-en-1-yl)pyridin-2-yl)oxy)methyl)cyclopropyl)amino)but-2-en-1-one] | 200 | 107 | 97 | 100 | 105 |  | 30 | 105
7 | O=C(/C=C/CNC1(COc2ccc(/C(=C(/CC(F)(F)F)c3ccccc3)c3ccc4[nH]nc(F)c4c3)cn2)CC1)N1CC(O)C1 [Example 40, (E)-1-(3-Hydroxyazetidin-1-yl)-4-((1-(((5-((Z)-4,4,4-trifluoro-1-(3-fluoro-1H-indazol-5-yl)-2-phenylbut-1-en-1-yl)pyridin-2-yl)oxy)methyl)cyclopropyl)amino)but-2-en-1-one] | 500 | 112 | 98 | 200 | 106 | 96 | 100 | 115
